Assay results as given in patent US20220151989A1, “LIPOIC ACID PRODRUG” (SANTEN PHARMACEUTICAL CO., LTD., priority 2019, published 2022).

Tests used:
[1] = tested on: anterior segment of the eye; assay: Ocular Irritation Test-2: McDonald-Shadduck method, lens observation, histopathological examination; format: in vivo, Japanese White rabbit; set-up: key to Irritation Score of anterior segment of the eye: Discharge / Irritation Score of anterior segment of the eye: Anterior chamber flare / Irritation Score of anterior segment of the eye: Light reflex / Irritation Score of anterior segment of the eye: Iris / Irritation Score of anterior segment of the eye: Corneal opacity / Irritation Score of anterior segment of the eye: Angiogenesis / Irritation Score of anterior segment of the eye: Corneal epithelial disorder / Lens / Histopathological examination of the eye / Irritation Score of anterior segment of the eye: Conjunctival hyperemia / Irritation Score of anterior segment of the eye: Conjunctival edema: +0.5: very slight; +1: slight; +2: moderate; +3: severe; —: No noteworthy findings; conditions: for Histopathological examination of the eye / Irritation Score of anterior segment of the eye: Angiogenesis / Irritation Score of anterior segment of the eye: Anterior chamber flare / Irritation Score of anterior segment of the eye: Conjunctival edema / Irritation Score of anterior segment of the eye: Conjunctival hyperemia / Irritation Score of anterior segment of the eye: Corneal epithelial disorder / Irritation Score of anterior segment of the eye: Corneal opacity / Irritation Score of anterior segment of the eye: Discharge / Irritation Score of anterior segment of the eye: Iris / Irritation Score of anterior segment of the eye: Light reflex / Lens: 50 μL/eye twice per day for 2 weeks
Protocol: Compound 1 was stirred with the addition of Vehicle C to give a 0.3% (w/v) solution, and the resulting solution was diluted with Vehicle C to give a 0.1% (w/v) solution. Further, the resulting 0.1% (w/v) solution was diluted with. Vehicle C to give a 0.03% (w/v) solution.
0.03% (w/v), 0.1% (w/v), and 0.3% (w/v) Compound 1 eye drops were each instilled into the left eye of a Japanese White rabbit at a dose of 50 μL/eye with pipette twice per day at a 6-hour interval for 2 weeks. One hour after the final instillation, ocular irritation of anterior segment of the eye was evaluated using a slit lamp according to the McDonald-Shadduck method, and the lens was observed. At the end of the treatment period, histopathological examination of the eye was performed. The contralateral eye was untreated.
The ocular irritation of anterior segment of the eye was scored according to the following criteria:
+1: slight; +2: moderate; +3: severe.

lens elasticity = assay: Pharmacological Test-3: lens elasticity, Compounds 5 and 6, 3 times per day for 14 days; format: in vivo,  mice
Protocol: The effects of Compounds 5 and 6 on the lens elasticity were investigated.
Compound 5 was stirred with the addition of Vehicle C to give a 0.03% (w/v) solution.
Compound 6 was stirred with the addition of Vehicle C to give a 0.03% (w/v) solution.
EV06 was stirred with the addition of Vehicle C to give a 0.03% (w/v) solution, which was used for comparison to the samples of Compounds 5 and 6.
1) Each test sample (2.5 μL/eye) was instilled into both eyes of 9-month-old […] mice with a Pipetman 3 times per day (around 9:00, 13:00 and 17:00) for 14 days. 2) After the final instillation, the mice were euthanized by carbon dioxide inhalation, and then the eyeballs were extracted and rinsed with Hank's balanced salt solution (HESS). 3) The sclera near the optic nerve was cut with a razor, the lens was removed through the incision, and the removed lens was immersed in HESS. 4) The lens was placed on a glass slide, and an all-in-one fluorescence microscope BZ-9000 (Keyence) was used to capture an image of the lens (Image a). 5) Next, one cover glass (Corning^(registered trade mark) 22×22 mm Square) was placed on the lens, and an image in which the thickness of the lens changed due to the weight was similarly captured (Image b). 6) A change in the lens diameter was calculated from the following Equation 1 wherein the lens diameter of Image a is subtracted from the lens diameter of Image b. Then, the lens elasticity improvement of each sample group compared with the vehicle control group was calculated from Equation 2 described below. The mean value of the vehicle control group was based on 8 eyes, and the mean value of each of the sample groups of Compounds 5 and 6 and EV06 was based on 10 eyes.
Change in lens diameter=Lens diameter in Image b of each test sample−Lens diameter in Image a of each test sample (Equation 1)
Lens elasticity improvement of each sample group=Mean change in lens diameter of each Test sample group−Mean change in lens diameter of Vehicle control group (Equation 2)

## CC(C)=CCOC(=O)CCCC[C@@H]1CCSS1 [Compound 1, 3-Methyl-2-buten-1-yl (R)-5-(1,2-dithiolan-3-yl)pentanoate]
[1]; 0.03% eye drop
  Histopathological examination of the eye: —
  Irritation Score of anterior segment of the eye: Angiogenesis: —
  Irritation Score of anterior segment of the eye: Anterior chamber flare: —
  Irritation Score of anterior segment of the eye: Conjunctival edema: —
  Irritation Score of anterior segment of the eye: Conjunctival hyperemia: —
  Irritation Score of anterior segment of the eye: Corneal epithelial disorder: —
  Irritation Score of anterior segment of the eye: Corneal opacity: —
  Irritation Score of anterior segment of the eye: Discharge: —
  Irritation Score of anterior segment of the eye: Iris: —
  Irritation Score of anterior segment of the eye: Light reflex: —
  Lens: —
[1]; 0.03%, 0.1% and 0.3% eye drops, twice per day for 2 weeks
  ocular irritation: No ocular irritation was observed
[1]; 0.1% eye drop
  Histopathological examination of the eye: —
  Irritation Score of anterior segment of the eye: Angiogenesis: —
  Irritation Score of anterior segment of the eye: Anterior chamber flare: —
  Irritation Score of anterior segment of the eye: Conjunctival edema: —
  Irritation Score of anterior segment of the eye: Conjunctival hyperemia: —
  Irritation Score of anterior segment of the eye: Corneal epithelial disorder: —
  Irritation Score of anterior segment of the eye: Corneal opacity: —
  Irritation Score of anterior segment of the eye: Discharge: —
  Irritation Score of anterior segment of the eye: Iris: —
  Irritation Score of anterior segment of the eye: Light reflex: —
  Lens: —
[1]; 0.3% eye drop
  Histopathological examination of the eye: —
  Irritation Score of anterior segment of the eye: Angiogenesis: —
  Irritation Score of anterior segment of the eye: Anterior chamber flare: —
  Irritation Score of anterior segment of the eye: Conjunctival edema: —
  Irritation Score of anterior segment of the eye: Conjunctival hyperemia: —
  Irritation Score of anterior segment of the eye: Corneal epithelial disorder: —
  Irritation Score of anterior segment of the eye: Corneal opacity: —
  Irritation Score of anterior segment of the eye: Discharge: —
  Irritation Score of anterior segment of the eye: Iris: —
  Irritation Score of anterior segment of the eye: Light reflex: —
  Lens: —

## C[N+](C)(C)CCOC(=O)CCCC[C@@H]1CCSS1.[Cl-] [EV06, Lipoic acid choline ester, reference compound]
Lens elasticity; 0.03% (w/v) solution in Vehicle C, both eyes, 3 times per day for 14 days, 9-month-old mice
  Lens elasticity improvement: 3.6 μm
Lens elasticity; at a concentration of 0.03%
  lens elasticity improving effect: did not show lens elasticity improving effect
